Assay: xn = mol fraction of the nth substance listed
Conditions: Ring tensiometer

OCc1ccccc1 [benzenemethanol] + CC(C)O
surface tension liquid-gas [mN/m]
Conditions	x2 = 0	x2 = 0.0029	x2 = 0.005	x2 = 0.0076	x2 = 0.0117	x2 = 0.0207	x2 = 0.0329	x2 = 0.0494
293.15 K	39.05	37.69	37.53	37.21	36.95	36.79	36.56	36.06
298.15 K	38.58	37.3	37.09	36.8	36.53	36.37	36.15	35.53
303.15 K	38.12	36.95	36.68	36.43	36.13	35.97	35.78	35.09
308.15 K	37.63	36.62	36.32	36.05	35.75	35.55	35.41	34.61
313.15 K	37.16	36.29	35.92	35.68	35.39	35.14	35.04	34.11
318.15 K	36.63	35.89	35.48	35.27	35.04	34.73	34.62	33.63
323.15 K	36.18	35.55	35.04	34.92	34.64	34.29	34.22	33.22

OCc1ccccc1 [benzenemethanol] + CCC(C)O
surface tension liquid-gas [mN/m]
Conditions	x2 = 0	x2 = 0.0026	x2 = 0.0056	x2 = 0.0078	x2 = 0.0107	x2 = 0.0246	x2 = 0.0366	x2 = 0.0512
293.15 K	39.05	37.5	37.14	36.95	36.4	36.07	35.65	35.32
298.15 K	38.58	37.08	36.75	36.52	36.05	35.64	35.25	34.88
303.15 K	38.12	36.63	36.31	36.12	35.72	35.18	34.83	34.4
308.15 K	37.63	36.2	35.97	35.71	35.39	34.77	34.46	34
313.15 K	37.16	35.75	35.55	35.31	35.03	34.37	34.03	33.54
318.15 K	36.63	35.35	35.17	34.9	34.67	33.95	33.62	33.07
323.15 K	36.18	34.95	34.8	34.49	34.34	33.5	33.24	32.7

OCc1ccccc1 [benzenemethanol] + CCCC(C)O
surface tension liquid-gas [mN/m]
Conditions	x2 = 0	x2 = 0.0026	x2 = 0.0055	x2 = 0.0093	x2 = 0.0129	x2 = 0.0238	x2 = 0.0344	x2 = 0.0542
293.15 K	39.05	36.98	36.71	36.43	35.99	35.72	35.49	35.08
298.15 K	38.58	36.48	36.22	35.95	35.54	35.32	35.08	34.61
303.15 K	38.12	35.95	35.7	35.53	35.15	34.9	34.71	34.1
308.15 K	37.63	35.46	35.18	35	34.73	34.49	34.32	33.61
313.15 K	37.16	34.97	34.73	34.54	34.33	34.05	33.93	33.1
318.15 K	36.63	34.44	34.18	34.07	33.91	33.63	33.49	32.69
323.15 K	36.18	33.91	33.65	33.56	33.55	33.28	33.11	32.19

OCc1ccccc1 [benzenemethanol] + CCCCCO
surface tension liquid-gas [mN/m]
Conditions	x2 = 0	x2 = 0.0037	x2 = 0.0052	x2 = 0.0083	x2 = 0.0117	x2 = 0.0213	x2 = 0.0336	x2 = 0.0536
293.15 K	39.05	36.88	36.73	36.56	36.35	35.93	35.63	35.22
298.15 K	38.58	36.41	36.34	36.12	35.93	35.5	35.21	34.76
303.15 K	38.12	36.05	35.92	35.73	35.5	35.05	34.79	34.31
308.15 K	37.63	35.64	35.51	35.28	35.1	34.64	34.35	33.8
313.15 K	37.16	35.26	35.1	34.86	34.69	34.24	33.95	33.34
318.15 K	36.63	34.86	34.7	34.47	34.29	33.82	33.52	32.95
323.15 K	36.18	34.47	34.31	34.03	33.89	33.4	33.08	32.43

OCc1ccccc1 [benzenemethanol] + CCCCO
surface tension liquid-gas [mN/m]
Conditions	x2 = 0	x2 = 0.0034	x2 = 0.0044	x2 = 0.0071	x2 = 0.0117	x2 = 0.0213	x2 = 0.0303	x2 = 0.0492
293.15 K	39.05	37.89	37.67	37.12	36.88	36.62	36.46	35.94
298.15 K	38.58	37.43	37.23	36.67	36.48	36.17	35.99	35.49
303.15 K	38.12	36.95	36.79	36.22	36.03	35.68	35.52	35.06
308.15 K	37.63	36.5	36.36	35.77	35.6	35.18	35.02	34.64
313.15 K	37.16	36.06	35.93	35.33	35.1	34.74	34.57	34.16
318.15 K	36.63	35.63	35.51	34.84	34.66	34.27	34.02	33.74
323.15 K	36.18	35.24	35.08	34.44	34.18	33.84	33.59	33.35
